Series [1] concerns HIV-1 RTMDR. Description: Multi-RTI-resistant HIV-1 RTMDR infection in TZM-bl cell line. Type of series: cell-based. As to conditions: Human immunodeficiency virus 1, TZM-bl.
Series [2] concerns HIV-1 NL4-3. As to conditions: NL4-3 in TZM-bl cell line; starred compounds, data were reported in ref [11]; cited from earlier work.
Series [3] concerns TZM-bl cell line. As to conditions: cited from earlier work.
Series [4] has as its system HIV-1 IIIB. As to conditions: cited from earlier work.
Series [5] has as its system MT-2 cells. The following applies: cited from earlier work.
For series [6], the system named is HIV-1 IIIB. Description: Inhibition of HIV-1 IIIB replication in MT-2 cells. Format: cell-based. As to conditions: Human immunodeficiency virus 1, IIIB.
The test system of series [7] is HIV-1 NL4-3. The series can be described thus: in vitro. Format: cell-based. The following applies: for EC50: Human immunodeficiency virus 1, NL43, TZM-bl.
The test system of series [8] is HIV-1 A17 (K103N/Y181C). Description: Multi-RTI-resistant HIV-1 A17 replication in MT-2 cells. Type of series: cell-based. As to conditions: Human immunodeficiency virus 1, MT2.
Setting [9] is: TZM-bl cell line, XTT assay, starred compounds, data were reported in ref [11].
Where [10] appears, read: IIIB in MT-2 cell line, starred compounds, data were reported in ref [11].
Setting [11] is: MT-2 cell line, XTT assay, starred compounds, data were reported in ref [11].

Molecules are shown by their SMILES. Read-outs that look alike come from different tables or passages of the source. Where only a bound is given, the exact number is not on record here.

This is an account of results in PMC3050082 (Journal of medicinal chemistry, 2010).

In general, EC50 refers to the midpoint of the concentration-response curve. Broadly, the CC50 is the concentration that lowers cell viability or growth by half.

Consider `Cc1cc(I)cc(C)c1Oc1ccc([N+](=O)[O-])c(Nc2ccc(C#N)cc2)n1` [11a, N^2-(4′-Cyanophenyl)-6-(2″,6″-dimethyl-4″-iodo)phenoxy-3-nitropyridin-2-amine], for which the values for the EC50 in series [1], in series [2] and in series [4] (setting [10]) were 94.3 ± 9 nM, 60.7 ± 24 nM and 79 ± 2 nM, respectively. For the same compound, the “SI (selective index = CC50/EC50)” value in series [2] is more than 675; in series [4] (setting [10]) it was 283. Further, the CC50 in series [3] (setting [9]) was more than 41200 nM; in series [5] (setting [11]), 22900 nM.

With `Cc1cc(C#CC(C)(C)O)cc(C)c1Oc1ccc([N+](=O)[O-])c(Nc2ccc(C#N)cc2)n1` [11d, N-(4′-Cyanophenyl)-6-[2″,6″-dimethyl-4″-(3-methylbut-3-ol-1-yn)phenoxy]-3-nitropyridin-2-amine], the “SI (selective index = CC50/EC50)” value in series [2] is listed as 1.09; in series [4], 2.61. The values for the CC50 in series [3] and in series [5] were 45200 nM and 23300 nM, respectively.

Compound `Cc1cc(C#CC2CC2)cc(C)c1Oc1ccc([N+](=O)[O-])c(Nc2ccc(C#N)cc2)n1` [11e, N-(4′-Cyanophenyl)-6-[4″-(2-cyclopropylethynyl)-2″,6″-dimethyl]phenoxy-3-nitro-pyridin-2-amine] came in with an EC50 in series [6] (MT2, IIIB in MT-2 cell line) of more than 3000 nM.

`C#Cc1cc(C)c(Oc2ccc([N+](=O)[O-])c(Nc3ccc(C#N)cc3)n2)c(C)c1` [11f, N^2-(4′-Cyanophenyl)-6-(2″,6″-dimethyl-4″-ethynyl)phenoxy-3-nitropyridin-2-amine]: the figures for the EC50 in series [1], in series [2] and in series [4] (setting [10]) were 215 ± 33 nM, 111 ± 86 nM and 247 ± 40 nM, respectively. Moreover, the figures for the “SI (selective index = CC50/EC50)” value in series [2] and in series [4] (setting [10]) were more than 469 and more than 405, respectively. Further, the CC50 in series [3] (setting [9]) is more than 52100 nM; in series [5] (setting [11]), more than 100000 nM.

In turn, `Cc1cc(/C=C/C#N)cc(C)c1Oc1ccc([N+](=O)[O-])c(Nc2ccc(C#N)cc2)n1` [11m, (E)-N-(4′-Cyanophenyl)-6-(4″-cyanovinyl-2″,6″-dimethyl)phenoxy-3-nitropyridin-2-amine] gave an EC50 in series [1] of 14.8 ± 2.4 nM.

Turning to `Cc1cc(/C=C/C#N)cc(C)c1Oc1ccc([N+](=O)[O-])c(Nc2ccc(C#N)cc2)c1` [12c, (E)-N^2-(4′-Cyanophenyl)-4-(4″-cyanovinyl-2″,6″-dimethyl)phenoxy-1-nitroaniline], the selectivity ratio in series [7] (human) was more than 4690.

With `Cc1cc(I)cc(C)c1Oc1ccc(N)c(Nc2ccc(C#N)cc2)n1` [13a, N^2-(4′-Cyanophenyl)-6-(2″,6″-dimethyl-4″-iodo)phenoxypyridin-2,3-diamine], the EC50 in series [1] is 5.13 ± 1.15 nM; in series [2], 7.6 ± 2.3 nM; in series [4] (setting [10]), 54 ± 4 nM. For the same compound, the entries for the “SI (selective index = CC50/EC50)” value in series [2] and in series [4] (setting [10]) were 2200 and 134, respectively. In addition, the results for the CC50 in series [3] (setting [9]) and in series [5] (setting [11]) were 16700 nM and 7240 nM, respectively.

Compound `C=CCc1cc(C)c(Oc2ccc(N)c(Nc3ccc(C#N)cc3)n2)c(C)c1` [13c, 6-(4″-Allyl-2″,6″-dimethyl)phenoxy-N^2-(4′-cyanophenyl)pyridin-2,3-diamine] returned an EC50 in series [1] of 15.4 ± 1.6 nM.

Regarding `Cc1cc(C#CC(C)(C)O)cc(C)c1Oc1ccc(N)c(Nc2ccc(C#N)cc2)n1` [13d, N^2-(4′-Cyanophenyl)-6-[2″,6″-dimethyl-4″-(3-methylbut-3-ol-1-yn)phenoxy]pyridin-2,3-di amine], the EC50 was 241 ± 14.7 nM in series [2] and 1580 ± 97 nM in series [4] (setting [10]). Also, the “SI (selective index = CC50/EC50)” value in series [2] is 36; in series [4], 2.25. The CC50 in series [3] was 8730 nM; in series [5], 3540 nM.

For `Cc1cc(C#CC2CC2)cc(C)c1Oc1ccc(N)c(Nc2ccc(C#N)cc2)n1` [13e, N^2-(4′-Cyanophenyl)-6-[4″-(2-cyclopropylethynyl)-2″,6″-dimethylphenoxy]pyridin-2,3-diamine], the EC50 in series [1] was 121 ± 17.7 nM; in series [8], more than 10000 nM.

With `C#Cc1cc(C)c(Oc2ccc(N)c(Nc3ccc(C#N)cc3)n2)c(C)c1` [13f, N^2-(4′-Cyanophenyl)-6-(2″,6″-dimethyl-4″-ethynyl)phenoxypyridin-2,3-diamine], the EC50 in series [1] is 9 ± 2 nM; in series [8], 1430 ± 260 nM; in series [2], 6.7 ± 1 nM. Moreover, the “SI (selective index = CC50/EC50)” value is listed as 1484 in series [2] and 221 in series [4] (setting [10]). In addition, the CC50 in series [3] (setting [9]) was 9940 nM; in series [5] (setting [11]) it was 9280 nM.

As to `CC(=O)CCc1cc(C)c(Oc2ccc(N)c(Nc3ccc(C#N)cc3)n2)c(C)c1` [13k, 6-[(4″-Butan-2-one)-2″,6″-dimethyl]phenoxy-N^2-(4′-cyanophenyl)pyridin-2,3-diamine], the results for the EC50 in series [1] and in series [8] were 3.2 ± 0.8 nM and 730 ± 58 nM, respectively.

As for `Cc1cc(/C=C/C#N)cc(C)c1Oc1ccc(N)c(Nc2ccc(C#N)cc2)n1` [13m, (E)-N^2-(4′-Cyanophenyl)-6-(4″-cyanovinyl-2″,6″-dimethyl)phenoxypyridin-2,3-diamine], the EC50 in series [1] amounted to 0.59 ± 0.09 nM; in series [8] it was 200 ± 10 nM.

With `Cc1cc(C#N)cc(C)c1Oc1ccc(N)c(Nc2ccc(C#N)cc2)n1` [compound 3, reference compound], the values for the EC50 in series [7] (NL4-3 in TZM-bl cell line) and in series [1] were 0.68 ± 0.03 nM and 0.96 ± 0.3 nM, respectively.

Consider `N#Cc1ccc(Nc2cc(Oc3ccc4cc(C#N)ccc4c3)c([N+](=O)[O-])cc2[N+](=O)[O-])cc1` [compound 17, 5-(6-Cyano-2-naphthoxy)-N^1-(4′-cyanophenyl)-2,4-dinitroaniline], for which the EC50 in series [7] and in series [6] (MT2) was more than 100 nM in each case.

In the case of `N#Cc1ccc(Nc2cc(Oc3ccc4cc(C#N)ccc4c3)c([N+](=O)[O-])cc2N)cc1` [compound 19, 4-(6-Cyano-2-naphthoxy)-N^2-(4′-cyanophenyl)-5-nitrobenzene-1,2-diamine], the EC50 is more than 100 nM in series [7] (NL4-3 in TZM-bl cell line) and more than 100 nM in series [6] (MT2, IIIB in MT-2 cell line).

For `N#Cc1ccc(Nc2cc([N+](=O)[O-])c(Oc3ccc4cc(C#N)ccc4c3Br)cc2N)cc1` [compound 20, 4-(1-Bromo-6-cyano-2-naphthoxy)-N^1-(4′-cyanophenyl)-5-nitrobenzene-1,2-diamine], the EC50 in series [7] (NL4-3 in TZM-bl cell line) was more than 100 nM; in series [6] (MT2, IIIB in MT-2 cell line), more than 100 nM.
